From patent US6068976A, “Modulators of ob gene and screening methods therefor” (priority 1996, dated 2000)
Where two headings read alike, the source gives them in different places. No end group written: not given here.

Legend:
[1] = cited from earlier work
[2] = tested on: ob gene; experiment: In vivo ob mRNA levels in adipose tissue of treated rats (Northern/dot blot, actin-normalised); parameters: species or system rat
[3] = In vivo body weight, food intake and tissue weights in treated rats; details: for Epidydimal fat pad weight / Liver weight / Body Mass: oral gavage; for Epidydimal fat pad weight: control 2.5 ± 0.3, * p < 0.05; for Liver weight: control 16.8 ± 1.3; for Body Mass: control 344 ± 22; for food consumption: 4 days, triamcinolone 20 or dexamethasone 3.7 μg/g body weight/day
[4] = tested on: ob gene; experiment: Ex vivo endogenous ob mRNA expression in rat primary adipocytes; format: cell-based; details: for ob mRNA expression in primary rat adipocytes: 24 hr; for production of ob messenger RNA in rat primary adipocytes: insulin 100 nM or dexamethasone 33 nM
[5] = tested on: human ob promoter; experiment: Human ob promoter-luciferase reporter in transfected 3T3-L1 cells
[6] = tested on: human ob promoter; experiment: Human ob promoter-luciferase reporter in transfected rat primary adipocytes
[7] = tested on: PPAR nuclear hormone receptors; details: cited from earlier work
[8] = tested on: cachexia; details: cancer patients; cited from earlier work
[9] = tested on: 3T3-F442A and ob 17 cells; details: cited from earlier work
[10] = Body weight and food intake of male mice injected with ethinylestradiol; format: in vivo, mouse; details: 0.75 μg/g body weight, 7 day
[11] = in vivo; cited from earlier work
[12] = hydrocortisone 1, 10 or 100 μg/g body weight, s.c., once daily, 20 days
[13] = hydrocortisone 100 μg/g body weight, once daily, 20 days
[14] = 4 days, triamcinolone 20 or dexamethasone 3.7 μg/g body weight/day
[15] = fenofibrate 0.5% w/w in food, 14 days

Compound: N-propyl-thiouracil
- body weight ([1]; rats, literature): significant increase in body weight
- food intake ([1]; rats, literature): ingest less food

Compound: C[C@]12CCC(=O)C=C1CC[C@@H]1[C@@H]2[C@@H](O)C[C@@]2(C)[C@H]1CC[C@]2(O)C(=O)CO [hydrocortisone]
- time of maximal ob mRNA effect ([2]; hydrocortisone 100 μg/g body weight/day): 2 days
- increase of ob mRNA levels ([2]; hydrocortisone 100 μg/g body weight/day, adipose tissue): more than 2 fold
- ob mRNA levels in adipose tissue [2, 12]: dose-dependent induction of ob mRNA levels in adipose tissue
- β-actin mRNA levels ([2]; hydrocortisone, entire treatment period): remained constant
- body weight at end of treatment ([3]; hydrocortisone 100 μg/g body weight, 20 days): slight decrease in body weight
- body weight gain [3, 13]: completely prevented this gain in body weight
- reduction of food consumption vs untreated animals [3, 13]: 10-15%
- body weight gain [3, 12]: dose-dependent reduction in body weight gain

Compound: CN(CCOc1ccc(CC2SC(=O)NC2=O)cc1)c1ccccn1 (centres unmarked) [BRL 49653, 5-[[4-[2-(methyl-2-pyridinylamino)ethoxy]phenyl]methyl]-2,4-thiazolidinedione]
- effect on ob mRNA expression, dose dependence ([2]; BRL 49653 0, 1, 2 or 5 mg/kg/day, 7 days): dose-dependent
- decrease of ob mRNA levels in epidydimal fat pads ([2]; BRL 49653 5 mg/kg/day, 7 days): 40%
- ob mRNA expression in primary rat adipocytes ([4]; 100 μM, three independent experiments): reduced ob mRNA expression significantly
- suppression of ob gene expression by PPARγ in primary adipocytes ([4]; primary adipocytes): amplifies the suppression of ob gene expression by PPARγ in primary adipocytes
- effect on pGL3-OB1 in addition to PPARγ ([5]; with PPARγ cotransfection): slight cumulative effect
- body or liver weight ([3]; 0, 1, 2, and 5 mg/kg/day over 7 days): no change in either body or liver weight
- ratio of adipose tissue/body weight after treatment ([3]; 5 mg/kg/day, 7 days, 0.75%±0.1 before, p<0.05): 1.2%±0.2
- food intake ([3]; 5, 10, 20 mg/kg/day over 7 days): significant dose dependent increase in food intake
- Epidydimal fat pad weight ([3]; BRL 49653 1 mg/kg/day, 7 days): 3.3 ± 0.2 g
- Liver weight ([3]; BRL 49653 1 mg/kg/day, 7 days): 17.9 ± 1.3 g
- Body Mass ([3]; BRL 49653 1 mg/kg/day, 7 days, mean ± SD): 355 ± 21 g
- Epidydimal fat pad weight ([3]; BRL 49653 2 mg/kg/day, 7 days): 3.8 ± 0.5 g
- Liver weight ([3]; BRL 49653 2 mg/kg/day, 7 days): 18.9 ± 0.6 g
- Body Mass ([3]; BRL 49653 2 mg/kg/day, 7 days): 361 ± 18 g
- Epidydimal fat pad weight ([3]; BRL 49653 5 mg/kg/day, 7 days): 4.0 ± 0.6 g
- Liver weight ([3]; BRL 49653 5 mg/kg/day, 7 days): 17.4 ± 1.8 g
- Body Mass ([3]; BRL 49653 5 mg/kg/day, 7 days): 338 ± 9 g
- epidydimal fat pad weight (trend) ([3]; BRL 49653 1, 2, 5 mg/kg/day, 7 days): dose-dependent increase in epidydimal fat pad weight
- food intake and body weight (summary statement) ([3]; rats): increasing food intake and body weight in rats
- food intake ([3]; relatively low doses (1, 2, 5 mg/kg/day), 7 days): food intake showed a tendency to decrease, although no statistical significance was obtained
- additional effect on ob promoter activity ([6]; 10 μM, with PPARγ cotransfection): no further effect
- activity at 10 µM ([6]; Homo sapiens, Adipocyte, read-out: ob promoter activity reduced to): 40%

Compound: CC(C)(Oc1ccc(Cl)cc1)C(=O)O [Clofibric acid]
- transcriptional activity of PPARs [7]: stimulate transcriptional activity of the PPAR nuclear hormone receptors

Compound: C[C@]12CC[C@H](O)CC1=CC[C@@H]1[C@@H]2CC[C@]2(C)C(=O)CC[C@@H]12 [DHEA, Dihydroepiandosterone]
- food intake ([3]; DHEA, short experiment, rats): significant decrease in food intake
- gain in body weight ([3]; DHEA, three day treatment, rats): capable of reducing the gain in body weight already after a three day treatment period

Compound: CC(=O)CCCCn1c(=O)c2c(ncn2C)n(C)c1=O [pentoxifylline]
- reduction of cachexia [8]: improve the conditions of some patients

Compound: C[C@]12C=CC(=O)C=C1CC[C@H]1[C@@H]3C[C@@H](O)[C@](O)(C(=O)CO)[C@@]3(C)C[C@H](O)[C@@]12F [triamcinolone]
- ob mRNA levels [2, 14]: increase of ob mRNA levels
- food consumption [3]: reduced food consumption

Compound: CCc1ccc(CCOc2ccc(CC3SC(=O)NC3=O)cc2)nc1 (centres unmarked) [Pioglitazone, pioglitazone]
- inhibition at 10 µM ([6]; Homo sapiens, Adipocyte, read-out: decrease in pGL3-OB1 expression): ~30%
- inhibition at 10 µM ([6]; Homo sapiens, Adipocyte, read-out: inhibition of pGL3-OB1 expression): ~50%

Compound: C[C@@H]1C[C@H]2[C@@H]3CCC4=CC(=O)C=C[C@]4(C)[C@@]3(F)[C@@H](O)C[C@]2(C)[C@@]1(O)C(=O)CO [dexamethasone]
- ob mRNA levels [2, 14]: increase of ob mRNA levels
- increase of ob mRNA levels in rat adipose tissue ([2]; within 24 hr after a single injection of dexamethasone (3.7 μg/g)): 2.2 fold
- stimulation of ob gene expression, comparison with insulin ([4]; dexamethasone 33 nM vs insulin 100 nM, 48 hours): stronger stimulation of ob gene expression than insulin
- production of ob messenger RNA in rat primary adipocytes ([4]; 48 hours): stimulated production of the ob messenger RNA
- food consumption [3]: reduced food consumption

Compound: O=C(O)COc1cc(Cl)c(Cl)cc1Cl [2,4,5-trichlorophenoxyacetic acid]
- transcriptional activity of PPARs [7]: transcriptional activity of the PPARs can be induced

Compound: CC(C)(Oc1ccc(C(=O)c2ccc(Cl)cc2)cc1)C(=O)O [fenofibric acid]
- ob mRNA expression in primary rat adipocytes ([4]; 250 μM): no effect of fenofibrate on ob mRNA levels was detected

Compound: Cc1ccc(C)c(OCCCC(C)(C)C(=O)O)c1 [gemfibrozil]
- transcriptional activity of PPARs [7]: stimulate transcriptional activity of the PPAR nuclear hormone receptors

Compound: CCCCC(CC)COC(=O)c1ccccc1C(=O)OCC(CC)CCCC (centres unmarked) [di-(2-ethylhexyl)-phtalate]
- transcriptional activity of PPARs [7]: transcriptional activity of the PPARs can be induced

Compound: CC1=C(/C=C/C(C)=C/C=C/C(C)=C/C(=O)O)C(C)(C)CCC1 [Retinoic acid]
- adipogenesis [9]: inhibit adipogenesis

Compound: corticotropin-releasing hormone: corticotropin-releasing hormone (SEEPPISLDLTFHLLREVLEMARAEQLAQQAHSNRKLMEII; ends and bridges not checked; UniProt P06850 154-194, looked up)
- body weight ([1]; hypothalamic administration, fat rats): reduces body weight

Compound: insulin: insulin (1 U; Actrapid HMge, Novo Nordisk)
- stimulatory effect of insulin on ob mRNA under clamp ([2]; hyper- or eu-glycemic clamps): maintained when plasma glucose levels were maintained at either high or low levels
- ob mRNA level, refeeding plus insulin ([2]; refeeding plus insulin after overnight fast): no additive effects on ob mRNA level
- increase in adipose tissue ob gene expression relative to fasted rats ([2]; single dose insulin (1 U), fasted rats, 4 hours): 50-60%
- increase in ob mRNA relative to actin controls ([2]; single subcutaneous injection 1 I.U. insulin, 4 hours post injection, fasted rats): approximately two-fold increase
- production of ob mRNA in primary rat adipocytes ([4]; 1 or 10 nM insulin, 10% FBS): stimulated the production of ob mRNA in a dose dependent manner
- production of ob messenger RNA in rat primary adipocytes ([4]; 48 hours): stimulated production of the ob messenger RNA
- ob promoter luciferase expression in response to insulin ([5]; pGL3-OB1 in 3T3-L1 cells, insulin, control plasmid unaffected): two-fold
- increase of the level of ob mRNA (pGL3B-OB1 luciferase vector) ([6]; 200 nM insulin, 10% FBS, primary adipocytes with pGL3B-OB1): 140%

Compound: CC(C)OC(=O)C(C)(C)Oc1ccc(C(=O)c2ccc(Cl)cc2)cc1 [fenofibrate]
- ob mRNA levels [2, 15]: did not result in a reduction of ob mRNA levels
- transcriptional activity of PPARs [7]: stimulate transcriptional activity of the PPAR nuclear hormone receptors
- body or adipose tissue weight [3, 15]: did not result in a change in body or adipose tissue weight
- liver weight after treatment ([3]; fenofibrate 0.5% w/w in food, 14 days, from 13.8±0.5): 19.7 ± 2.5 g

Compound: N[C@@H](Cc1cc(I)c(Oc2cc(I)c(O)c(I)c2)c(I)c1)C(=O)O [thyroxine]
- body weight ([1]; rats, literature): decrease in body weight
- food intake ([1]; rats, literature): increase in food intake

Compound: CC(C)(Oc1ccc(Cl)cc1)C(=O)OCCOC(=O)c1cccnc1 [etiofibrate]
- transcriptional activity of PPARs [7]: stimulate transcriptional activity of the PPAR nuclear hormone receptors

Compound: C#C[C@]1(O)CC[C@H]2[C@@H]3CCc4cc(O)ccc4[C@H]3CC[C@@]21C [ethinyl estradiol, ethinylestradiol]
- decrease in body weight ([10]; injected, sham +1.81±1.04%): 14.83±1.44%
- food intake ([10]; male mice): important reduction in food intake
- body weight effect under pair-feeding ([1]; ovariectomized rats, pair-fed): pair-feeding abolished the effects of estrogens on body weight
- body weight ([1]; ovariectomized rats, substitution therapy): marked effect on body weight in ovariectomized rats

Compound: CC(COc1ccccc1)N(CCCl)Cc1ccccc1 (centres unmarked) [phenoxybenzamide]
- weight gain and fat accumulation [11]: prevents weight gain and fat accumulation
